The values that follow come from patent publication US9468648B2, “Treatment including prebiotic composition for use with probiotics” (MASTER SUPPLEMENTS, INC., priority 2010, dated 2016).

What all share (type): cell-based
Experiment [1] relates to Lactobacillus salivarius-Ls-33 (LS-30). Put plainly: Growth (turbidity) and lactic acid producing activity in MRS broth, L. salivarius Ls-33. Particulars: for pH: 0.1% in MRS (Polysorbate 80: 1.0 g/l). Here is the method:
(§1) Each flask was tempered to 37° C. and aseptically inoculated with 0.14 gm of the individual probiotic strains (in Examples 5 to 10 below) to be tested. At specified time intervals, a 30 ml sample from each flask was aseptically transferred into a HACH […] Turbidimeter sample cell. The turbidity of each sample was read and the results were reported in NTU's. The same 30 ml sample used for the turbidity reading was transferred into a 250 ml glass beaker, and the pH was recorded. The sample was titrated using 0.1 N NaOH to an endpoint of pH 6.8, and the quantity of NaOH used was recorded. The % Lactic Acid was calculated using the following formula: % Lactic Acid=((mls of 0.1N NaOH)×(0.1N)×(90 gm/mole)×(1 L/1000 ml))×100 mls of sample % Lactic Acid=(mls of 0.1N NaOH)×(0.9) (Results reported at 12 hours and 23 hours like: 12/23 in Table V below)

Experiment [2] deals with Lactobacillus rhamnosus-Lr-32 (LR-44). Put plainly: Growth (turbidity) and lactic acid producing activity in MRS broth, L. rhamnosus Lr-32. Particulars: for pH: 0.1% in MRS (Polysorbate 80: 1.0 g/l). Here is the method:
as §1, with “IV” for “V”

Experiment [3] relates to THERALAC® Lot #32310A probiotic strains. Description: Growth of the commercial probiotic […] in MRS broth. Particulars: for pH: 0.1% in MRS (Polysorbate 80: 1.0 g/l). Here is the method: MRS broth was prepared with (for controls) and without (for tests) polysorbate 80 and filled into 1 liter screw cap flasks at 500 ml each and autoclaved at 121° C. for 30 minutes. Various lecithin and/or oleic acid additives, or nothing (negative control), was added to the tests flasks prior to autoclaving. The flasks were then tempered to 37° C. in a water bath and inoculated at 0.1% with […]® Lot #32310A, a commercial probiotic product (Master Supplements, Inc., Victoria, Minn.). Capsules of […]® were opened and the contents mixed aseptically to serve as the inoculum source. At an inoculation rate of 0.1%, approximately 80 million CFU was added per ml of MRS media. […]® contains (formulation strength) the following probiotic strains at the approximate CFU values listed per gram: Turbidity, pH and titrations (made with 0.1 N NaOH and reported as % lactic acid) were made at various times up to 23 hours. The results are presented below in Table VI for the 12 and 23-hour analyses.

The subject of experiment [4] is Lactobacillus paracasei Lpc-37 (F-19). Put plainly: Growth (turbidity) and lactic acid producing activity in MRS broth, L. paracasei Lpc-37. The method, then:
as §1, with “III” for “V”

For experiment [5], the system named is Lactobacillus acidophilus NCFM (LA-1). Put plainly: Growth (turbidity) and lactic acid producing activity in MRS broth, L. acidophilus NCFM. Particulars: for pH: 0.1% in MRS (Polysorbate 80: 1.0 g/l). Here is the method: as §1, with “At” for “Each flask was tempered to 37° C. and aseptically inoculated with 0.14 gm of the individual probiotic strains (in Examples 5 to 10 below) to be tested. At”, “I” for “V”

Experiment [6] has as its system Bifidobacterium lactis Bl-04 (BL-34). Description: Growth (turbidity) and lactic acid producing activity in MRS broth, B. lactis Bl-04. Particulars: 0.1% in MRS (Polysorbate 80: 1.0 g/l). Here is the method: as §1, with “II” for “V”
Where [7] appears, read: 0.1% in MRS (Polysorbate 80: 1.0 g/l), 12 hours.

For the molecule `CCCCCCCC/C=C\CCCCCCCC(=O)O` [Oleic Acid, oleic acid], the “effectiveness as polysorbate 80 replacement (growth and activity)” value in experiment [1] (0.1% inclusion rate) is recorded as “not as good a replacement”; in experiment [2] (0.1% inclusion rate), “not as good a replacement for polysorbate 80 as sunflower lecithin”; in experiment [3] (0.1% inclusion rate), “acceptable replacement value for polysorbate 80”; in experiment [4] (0.1% inclusion rate), “not as effective a replacement for polysorbate 80 as sunflower lecithin”; in experiment [5] (0.1% inclusion rate) it was “somewhat effective as a polysorbate 80 replacement”.

Consider polysorbate 80, for which the pH in experiment [1] (12 hours) is given as 3.8; in experiment [1] (23 hours), 3.7; in experiment [2] (12 hours) it was 4.0; in experiment [2] (23 hours), 3.7; in experiment [3] (12 hours) it was 3.9; in experiment [3] (23 hours), 3.7. Also, the pH in experiment [6] (12 hours) is 4.8; in experiment [6] (23 hours), 4.5; in experiment [4] (setting [7]), 4.2; in experiment [4] (0.1% in MRS (Polysorbate 80: 1.0 g/l), 23 hours), 3.9; in experiment [5] (12 hours), 4.2; in experiment [5] (23 hours) it was 4.1. The figures for the “Lactic Acid %” value in experiment [6] (12 hours), in experiment [6] (23 hours) and in experiment [4] (setting [7]) were 0.57%, 0.84% and 0.99%, respectively.
